# Laboratory results published in US20260258369A1, “GENERATION OF BRANCHING URETERIC BUD AND COLLECTING DUCT ORGANOIDS FROM HUMAN PLURIPOTENT STEM CELLS” (The Brigham and Women's Hospital, Inc., priority 2023, published 2026).
# Entries after “also recorded” stand apart in the source; their conditions may differ.
# What was measured:
# [1] = tested on: CD organoid-derived cells; assay: Aldosterone response of transepithelial current in CD organoid-derived cells; type: cell-based, human; details: 24 hours; for increase in amiloride-sensitive current: aldosterone 10-100 nM, no dexamethasone
# ENaC [2] = target: T1, ENaC (Homo sapiens, UniProt P37088+P51168+P51170); assay: Ussing chamber short-circuit current (Isc) recordings in CD organoid-derived cells; type: cell-based; set-up: while the alpha subunit (SCNN1A) was expressed at lower levels; we confirmed expression at the protein level using an antibody specific to SCNN1B; the beta and gamma subunits were most abundant transcriptionally; endogenous in cells; host or cells: 2D cell line derived from hPSC-derived collecting duct organoids (principal cells), grown on transwell / Snapwell inserts
# T1 sequence (P37088 1-669): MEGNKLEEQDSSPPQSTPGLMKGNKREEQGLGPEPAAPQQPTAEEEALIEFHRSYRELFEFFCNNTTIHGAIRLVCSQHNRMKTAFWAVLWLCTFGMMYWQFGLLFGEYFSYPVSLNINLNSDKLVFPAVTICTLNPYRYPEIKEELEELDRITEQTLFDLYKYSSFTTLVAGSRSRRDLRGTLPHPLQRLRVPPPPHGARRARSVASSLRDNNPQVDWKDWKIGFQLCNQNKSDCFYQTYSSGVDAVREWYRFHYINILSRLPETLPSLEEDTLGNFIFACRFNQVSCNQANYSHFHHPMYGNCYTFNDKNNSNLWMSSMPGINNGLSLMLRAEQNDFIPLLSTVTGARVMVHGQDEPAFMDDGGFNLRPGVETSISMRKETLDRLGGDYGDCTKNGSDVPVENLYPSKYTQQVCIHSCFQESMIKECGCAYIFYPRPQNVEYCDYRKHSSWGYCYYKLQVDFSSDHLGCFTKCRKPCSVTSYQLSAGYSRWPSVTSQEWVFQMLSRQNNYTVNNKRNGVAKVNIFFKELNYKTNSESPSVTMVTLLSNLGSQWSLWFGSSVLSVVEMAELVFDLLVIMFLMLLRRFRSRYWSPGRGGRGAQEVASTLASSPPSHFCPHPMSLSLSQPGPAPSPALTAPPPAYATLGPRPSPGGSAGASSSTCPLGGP
# T1 sequence (P51168 1-640): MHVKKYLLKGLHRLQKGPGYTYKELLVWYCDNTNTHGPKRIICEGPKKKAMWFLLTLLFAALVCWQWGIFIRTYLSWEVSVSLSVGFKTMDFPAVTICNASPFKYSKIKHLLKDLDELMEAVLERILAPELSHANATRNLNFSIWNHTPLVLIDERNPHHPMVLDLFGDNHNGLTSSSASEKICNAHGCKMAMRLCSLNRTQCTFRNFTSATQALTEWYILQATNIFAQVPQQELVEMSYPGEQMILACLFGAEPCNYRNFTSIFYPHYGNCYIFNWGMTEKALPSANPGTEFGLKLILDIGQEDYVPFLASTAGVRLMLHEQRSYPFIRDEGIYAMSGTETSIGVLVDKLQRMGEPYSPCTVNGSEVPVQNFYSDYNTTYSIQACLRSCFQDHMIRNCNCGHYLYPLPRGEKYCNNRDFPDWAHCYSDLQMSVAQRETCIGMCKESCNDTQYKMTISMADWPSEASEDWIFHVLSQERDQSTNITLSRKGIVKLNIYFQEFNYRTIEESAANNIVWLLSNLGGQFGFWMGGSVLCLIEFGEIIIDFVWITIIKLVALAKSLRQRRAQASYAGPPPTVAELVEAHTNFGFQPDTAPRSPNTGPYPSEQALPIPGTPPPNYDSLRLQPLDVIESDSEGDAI
# T1 sequence (P51170 1-649): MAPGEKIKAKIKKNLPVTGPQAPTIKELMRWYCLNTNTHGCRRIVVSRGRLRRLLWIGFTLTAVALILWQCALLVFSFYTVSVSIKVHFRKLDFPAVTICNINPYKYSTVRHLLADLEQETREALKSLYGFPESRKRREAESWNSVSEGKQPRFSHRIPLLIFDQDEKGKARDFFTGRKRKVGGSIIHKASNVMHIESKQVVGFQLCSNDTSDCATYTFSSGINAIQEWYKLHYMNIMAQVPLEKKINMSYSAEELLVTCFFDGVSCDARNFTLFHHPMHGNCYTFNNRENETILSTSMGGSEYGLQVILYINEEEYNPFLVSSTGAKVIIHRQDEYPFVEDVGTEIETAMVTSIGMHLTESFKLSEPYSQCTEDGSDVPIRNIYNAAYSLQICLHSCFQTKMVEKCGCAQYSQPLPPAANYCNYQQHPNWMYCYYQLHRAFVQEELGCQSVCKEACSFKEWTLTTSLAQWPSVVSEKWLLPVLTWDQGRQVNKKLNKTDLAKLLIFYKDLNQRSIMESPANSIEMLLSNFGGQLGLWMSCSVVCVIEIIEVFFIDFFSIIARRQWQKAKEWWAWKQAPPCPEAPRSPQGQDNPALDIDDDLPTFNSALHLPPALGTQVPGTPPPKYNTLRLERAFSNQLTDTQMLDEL
# V-type ATPase [3] = target: T2, V-type ATPase (Homo sapiens, UniProt P27449); assay: Ussing chamber short-circuit current in FOXI1-induced CD cells; details: closed circuit
# ENaC [4] = target: T1, ENaC; details: amiloride 10 μM, open circuit
# V-type ATPase [5] = assay: Transwell open-circuit voltage and calculated current in FOXI1-induced (doxycycline-treated) CD cells; type: cell-based, human; details: open circuit transwell, amiloride 10 μM
# V-type ATPase [6] = target: T2, V-type ATPase; assay: as above; type: cell-based; details: bafilomycin 10 nM, added after amiloride, open circuit
smiles,measurement,setting,value
"C[C@]12CCC(=O)C=C1CC[C@@H]1[C@@H]2[C@@H](O)C[C@]2(C=O)[C@@H](C(=O)CO)CC[C@@H]12 [Aldosterone, aldosterone]",increase in amiloride-sensitive current,[1],~ 2.5 fold
same,increase in amiloride-sensitive current,[1]; listed as aldosterone,approximately 2.5 fold
same,transepithelial voltage and current,[1]; varying concentrations of aldosterone,dose-dependent increase
N=C(N)NC(=O)c1nc(Cl)c(N)nc1N [amiloride],residual short-circuit current after raising the concentration,"ENaC [2]; amiloride 100 μM, Ussing chamber",eliminated the small amount of residual current; also recorded: completely abolished
same,inhibition at 10 µM,ENaC [2]; read-out: inhibition of short-circuit current,> 95%
same,"short-circuit current in FOXI1-induced cells, amiloride",V-type ATPase [3],small increase in current
same,transepithelial resistance,ENaC [4],raising the transepithelial resistance
same,transepithelial voltage and current,ENaC [4]; within several minutes,completely abolished
same,amiloride sensitivity of FOXI1-induced cells,V-type ATPase [5],largely lost sensitivity
"CO/C1=C\C(C)=C\[C@@H](C)[C@@H](O)[C@@H](C)C/C(C)=C/C=C/[C@H](OC)[C@@H]([C@@H](C)[C@@H](O)[C@H](C)[C@@]2(O)C[C@@H](O)[C@H](C)[C@@H](C(C)C)O2)OC1=O [bafilomycin, bafilomycin-A1]","short-circuit current in FOXI1-induced cells, bafilomycin",V-type ATPase [3],near complete inhibition of the current
same,voltage and calculated current in FOXI1-induced cells,V-type ATPase [6],completely suppressed
